Data from patent US12336995B2, “Combination therapies” (Mirati Therapeutics, Inc., priority 2018, dated 2025).
Read-outs that look alike come from different tables or passages of the source.

Legend:
[1] = system: CR2528 cells (PDX models); test: In vivo PDX model, Compound 478 and Cetuximab (Table 5b); parameters: species or system nude/nude mice; conditions: for Average Tumor Volumes: CR2528, Cetuximab 0.25 mg/kg i.p. every third day, single or combined
Experimental: (§1) Immunocompromised nude/nude mice were inoculated in the right hind flank with cells or patient derived tumor samples harboring a KRas G12C mutation. […] The first group was administered vehicle only. […] The fourth group was administered the single agent dose of the KRas G12C inhibitor in combination with the single agent dose of the pan ErbB family inhibitor. […] Tumor volumes were measured using a caliper every two-three days and tumor volumes were calculated by the formula: 0.5×(Length×Width)^2.
(§2) In a related experiment, on Day 1, two sets of 20 nude/nude mice each were inoculated in the right hind limb with 5×10^6 CR6256 cells or CR2528 cells (PDX models). […] Tumor volumes were measured at pre-specified days set forth below.

[2] = system: CR6258 Tumor; test: In vivo PDX model, Compound 478 and Cetuximab (Table 5a); parameters: species or system nude/nude mice; conditions: for Average Tumor Volumes: CR6258, Cetuximab 0.25 mg/kg i.p. every third day, single or combined
Experimental: as §1, §2

[3] = system: KYSE-410 cells; test: In vivo tumor model, Compound 478 and Afatinib (Table 4b); conditions: for Average Tumor Volumes: KYSE-410, Afatinib 12.5 mg/kg, single or combined
Experimental: as §1
(§3) Tumor volumes were measured at pre-specified days set forth below.

[4] = system: KYSE-410 cells; conditions: KYSE-410-implanted mice; Day 61 (Treatment Day 50); single agent 100 mg/kg p.o. daily; Table 6a
Experimental: as §1, §3

[5] = system: H2122 cells; test: In vivo tumor model, Compound 478 and Afatinib (Table 4a); conditions: for Average Tumor Volumes: H2122, Afatinib 12.5 mg/kg, single or combined
Experimental: as §1, §3

[6] = system: H2122 cells; conditions: H2122-implanted mice; Day 46 (Treatment Day 35); single agent 100 mg/kg p.o. daily; Table 6b
Experimental: as §1, §3

[7] = system: LU6405 cells (PDX model); test: In vivo PDX model, Compound 478 and Afatinib (Table 4c); conditions: for Average Tumor Volumes: LU6405, Afatinib 12.5 mg/kg, single or combined
Experimental: as §1, §3

[8] = Day 11 post implant (treatment start), Compound 478 100 mg/kg p.o. daily
[9] = Day 11 post implant (treatment start), p.o. daily: Compound 478 100 mg/kg
[10] = Day 14 post implant, p.o. daily from Day 11: Compound 478 100 mg/kg
[11] = Day 18 post implant, p.o. daily from Day 11: Compound 478 100 mg/kg
[12] = Day 21 post implant, p.o. daily from Day 11: Compound 478 100 mg/kg
[13] = Day 25 post implant, p.o. daily from Day 11: Compound 478 100 mg/kg
[14] = Day 28 post implant, p.o. daily from Day 11: Compound 478 100 mg/kg
[15] = Day 32 post implant, p.o. daily from Day 11: Compound 478 100 mg/kg
[16] = Day 34 post implant, p.o. daily from Day 11: Compound 478 100 mg/kg

## C=C(F)C(=O)N1CCN(c2nc(OC[C@@H]3CCCN3C)nc3c2CCN(c2cccc4cccc(Cl)c24)C3)C[C@@H]1CC#N [Compound 478]
[1]; CR2528-implanted mice, Day 34 (Treatment Day 24), 100 mg/kg p.o. daily
  single-agent anti-tumor activity: no single-agent anti-tumor activity
[1]; [8]
  Average Tumor Volumes: 265.11 mm^3
[1]; Day 14 post implant, from Day 11: Compound 478 100 mg/kg p.o. daily
  Average Tumor Volumes: 350.48 mm^3
[1]; Day 17 post implant, from Day 11: Compound 478 100 mg/kg p.o. daily
  Average Tumor Volumes: 434.64 mm^3
[1]; Day 20 post implant, from Day 11: Compound 478 100 mg/kg p.o. daily
  Average Tumor Volumes: 656.73 mm^3
[1]; Day 24 post implant, from Day 11: Compound 478 100 mg/kg p.o. daily
  Average Tumor Volumes: 950.91 mm^3
[1]; Day 27 post implant, from Day 11: Compound 478 100 mg/kg p.o. daily
  Average Tumor Volumes: 1252.80 mm^3
[1]; Day 31 post implant, from Day 11: Compound 478 100 mg/kg p.o. daily
  Average Tumor Volumes: 1713.13 mm^3
[1]; Day 34 post implant, from Day 11: Compound 478 100 mg/kg p.o. daily
  Average Tumor Volumes: 2757.63 mm^3
[2]; CR6258-implanted mice, Day 37 (Treatment Day 27), Compound 478 100 mg/kg p.o. daily alone or with cetuximab 0.25 mg/kg i.p. every three days
  tumor regression: 71%
[2]; [8]
  Average Tumor Volumes: 190.54 mm^3
[2]; Day 18 post implant, from Day 11: Compound 478 100 mg/kg p.o. daily
  Average Tumor Volumes: 256.91 mm^3
[2]; Day 25 post implant, from Day 11: Compound 478 100 mg/kg p.o. daily
  Average Tumor Volumes: 201.00 mm^3
[2]; Day 28 post implant, from Day 11: Compound 478 100 mg/kg p.o. daily
  Average Tumor Volumes: 128.77 mm^3
[2]; Day 32 post implant, from Day 11: Compound 478 100 mg/kg p.o. daily
  Average Tumor Volumes: 77.44 mm^3
[2]; Day 35 post implant, from Day 11: Compound 478 100 mg/kg p.o. daily
  Average Tumor Volumes: 56.15 mm^3
[2]; Day 39 post implant, from Day 11: Compound 478 100 mg/kg p.o. daily
  Average Tumor Volumes: 44.24 mm^3
[2]; Day 42 post implant, from Day 11: Compound 478 100 mg/kg p.o. daily
  Average Tumor Volumes: 41.80 mm^3
[2]; Day 46 post implant, from Day 11: Compound 478 100 mg/kg p.o. daily
  Average Tumor Volumes: 29.92 mm^3
[2]; Day 49 post implant, from Day 11: Compound 478 100 mg/kg p.o. daily
  Average Tumor Volumes: 19.79 mm^3
[3]; [9]
  Average Tumor Volumes: 307.30 mm^3
[3]; [10]
  Average Tumor Volumes: 274.64 mm^3
[3]; Day 16 post implant, p.o. daily from Day 11: Compound 478 100 mg/kg
  Average Tumor Volumes: 311.34 mm^3
[3]; [11]
  Average Tumor Volumes: 297.62 mm^3
[3]; [12]
  Average Tumor Volumes: 338.18 mm^3
[3]; Day 23 post implant, p.o. daily from Day 11: Compound 478 100 mg/kg
  Average Tumor Volumes: 320.42 mm^3
[3]; [13]
  Average Tumor Volumes: 358.68 mm^3
[3]; [14]
  Average Tumor Volumes: 459.20 mm^3
[3]; Day 30 post implant, p.o. daily from Day 11: Compound 478 100 mg/kg
  Average Tumor Volumes: 441.60 mm^3
[3]; [15]
  Average Tumor Volumes: 480.62 mm^3
[3]; Day 37 post implant, p.o. daily from Day 11: Compound 478 100 mg/kg
  Average Tumor Volumes: 525.86 mm^3
[3]; KYSE-410 tumor bearing mice, Day 37 (Treatment Day 27), single agent 100 mg/kg p.o. daily
  tumor growth inhibition: 64%
[4]
  tumor growth inhibition: 71%
[5]; [9]
  Average Tumor Volumes: 325.05 mm^3
[5]; Day 13 post implant, p.o. daily from Day 11: Compound 478 100 mg/kg
  Average Tumor Volumes: 339.80 mm^3
[5]; Day 15 post implant, p.o. daily from Day 11: Compound 478 100 mg/kg
  Average Tumor Volumes: 337.58 mm^3
[5]; [11]
  Average Tumor Volumes: 381.78 mm^3
[5]; Day 20 post implant, p.o. daily from Day 11: Compound 478 100 mg/kg
  Average Tumor Volumes: 462.40 mm^3
[5]; Day 22 post implant, p.o. daily from Day 11: Compound 478 100 mg/kg
  Average Tumor Volumes: 479.48 mm^3
[5]; [13]
  Average Tumor Volumes: 492.76 mm^3
[5]; Day 27 post implant, p.o. daily from Day 11: Compound 478 100 mg/kg
  Average Tumor Volumes: 541.06 mm^3
[5]; Day 29 post implant, p.o. daily from Day 11: Compound 478 100 mg/kg
  Average Tumor Volumes: 537.14 mm^3
[5]; [15]
  Average Tumor Volumes: 547.06 mm^3
[5]; [16]
  Average Tumor Volumes: 546.96 mm^3
[5]; H2122 tumor bearing mice, Day 22 (Treatment Day 10), single agent, Compound 478 100 mg/kg, afatinib 12.5 mg/kg p.o. daily
  tumor growth inhibition: 85%
[6]
  tumor regression: 3%
[7]; [9]
  Average Tumor Volumes: 256.06 mm^3
[7]; [10]
  Average Tumor Volumes: 308.98 mm^3
[7]; [11]
  Average Tumor Volumes: 324.46 mm^3
[7]; [12]
  Average Tumor Volumes: 329.09 mm^3
[7]; [13]
  Average Tumor Volumes: 310.21 mm^3
[7]; [14]
  Average Tumor Volumes: 290.88 mm^3
[7]; [15]
  Average Tumor Volumes: 257.34 mm^3
[7]; [16]
  Average Tumor Volumes: 249.19 mm^3
[7]; LU6405-implanted mice, Day 34 (Treatment Day 24), single agent 100 mg/kg p.o. daily
  tumor growth inhibition: 96%
